# Tests used:
# Assay in all cases: relative viability (nuclei count vs DMSO), 5 days (fraction); higher = more cells survive
# IPA-3 + Linsitinib = compound: C1=CC=C2C(=C1)C=CC(=C2SSC3=C(C=CC4=CC=CC=C43)O)O [IPA-3] + C[C@]1(O)C[C@@H](c2nc(-c3ccc4ccc(-c5ccccc5)nc4c3)c3c(N)nccn32)C1 [Linsitinib] (partner 1 µM)
# Method in brief: (§1)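 Medians of duplicate plates are given as relative viability. That measure is the nuclei count in treated wells divided by the count in vehicle wells. Counts were taken on 4× images of lung cancer cell lines in 1536-well plates, 5 days after pin-tool dosing the day after seeding with one drug alone or a fixed anchor-drug dose plus five library-drug doses (not always all listed) in √10 steps.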
# Doramapimod + Alpelisib = compound: Cc1ccc(-n2nc(C(C)(C)C)cc2NC(=O)Nc2ccc(OCCN3CCOCC3)c3ccccc23)cc1 [Doramapimod] + Cc1nc(NC(=O)N2CCC[C@H]2C(N)=O)sc1-c1ccnc(C(C)(C)C(F)(F)F)c1 [Alpelisib] (partner 2 µM)
# Method in brief: as §1
# Doramapimod + Dasatinib = compound: Cc1ccc(-n2nc(C(C)(C)C)cc2NC(=O)Nc2ccc(OCCN3CCOCC3)c3ccccc23)cc1 [Doramapimod] + Cc1nc(Nc2ncc(C(=O)Nc3c(C)cccc3Cl)s2)cc(N2CCN(CCO)CC2)n1 [Dasatinib] (partner 0.075 µM)
# Method in brief: as §1
# IPA-3 + Olaparib = compound: C1=CC=C2C(=C1)C=CC(=C2SSC3=C(C=CC4=CC=CC=C43)O)O [IPA-3] + O=C(c1cc(Cc2n[nH]c(=O)c3ccccc23)ccc1F)N1CCN(C(=O)C2CC2)CC1 [Olaparib] (partner 8 µM)
# Method in brief: as §1
Cell Line,relative viability (IPA-3 + Linsitinib; first compound 0.2 µM),relative viability (IPA-3 + Linsitinib; first compound 0.6325 µM),relative viability (IPA-3 + Linsitinib; first compound 2 µM),relative viability (IPA-3 + Linsitinib; first compound 6.325 µM),relative viability (IPA-3 + Linsitinib; first compound 20 µM),relative viability (Doramapimod + Alpelisib; first compound 0.02 µM),relative viability (Doramapimod + Alpelisib; first compound 0.06325 µM),relative viability (Doramapimod + Alpelisib; first compound 0.2 µM),relative viability (Doramapimod + Alpelisib; first compound 0.6325 µM),relative viability (Doramapimod + Alpelisib; first compound 2 µM),relative viability (Doramapimod + Dasatinib; first compound 0.02 µM),relative viability (Doramapimod + Dasatinib; first compound 0.06325 µM),relative viability (Doramapimod + Dasatinib; first compound 0.2 µM),relative viability (Doramapimod + Dasatinib; first compound 0.6325 µM),relative viability (Doramapimod + Dasatinib; first compound 2 µM),relative viability (IPA-3 + Olaparib; first compound 0.2 µM),relative viability (IPA-3 + Olaparib; first compound 0.6325 µM),relative viability (IPA-3 + Olaparib; first compound 2 µM),relative viability (IPA-3 + Olaparib; first compound 6.325 µM),relative viability (IPA-3 + Olaparib; first compound 20 µM)
NCI-H1563,1.31,1.24,1.32,1.34,1.3,0.859,0.912,0.893,1,0.802,0.437,0.478,0.44,0.82,0.421,–,–,–,–,–
NCI-H1650,–,–,–,–,–,–,–,–,–,–,0.366,0.294,0.338,0.402,0.217,0.947,0.74,0.877,0.715,0.746
Calu-6,1.14,0.937,0.878,0.952,0.958,1.05,0.924,0.866,1.16,0.986,–,–,–,–,–,0.629,0.503,0.617,0.596,0.426
NCI-H1703,1.1,0.39,0.974,0.787,1.05,0.363,0.336,0.323,0.393,0.278,–,–,–,–,–,0.807,0.479,0.38,0.459,0.581
EBC-1,1.12,0.729,0.911,0.841,0.871,0.804,0.792,0.785,0.933,0.675,–,–,–,–,–,0.904,0.668,0.715,0.607,0.493
NCI-H1648,–,–,–,–,–,–,–,–,–,–,–,–,–,–,–,1.05,0.906,0.84,0.739,0.873
ChaGo-K-1,–,–,–,–,–,–,–,–,–,–,0.51,0.583,0.526,0.566,0.586,0.458,0.421,0.413,0.441,0.392
HCC-44,0.772,0.588,0.708,0.632,0.686,0.811,0.764,0.756,0.76,0.701,–,–,–,–,–,0.961,0.983,1.03,1.02,1.02
SW 900,–,–,–,–,–,–,–,–,–,–,0.654,0.548,0.714,0.813,0.553,0.684,0.683,0.811,0.832,1.03
NCI-H2342,–,–,–,–,–,–,–,–,–,–,0.277,0.309,0.319,0.333,0.278,0.468,0.4,0.559,0.46,0.473
A549,0.653,0.582,0.683,0.591,0.775,0.69,0.626,0.675,0.784,0.55,–,–,–,–,–,0.375,0.312,0.302,0.331,0.414

# Source: the supplement of paper PMC10307832
